Source: US20130123271A1, “HETEROCYCLIC COMPOUNDS, THEIR PREPARATION AND THERAPEUTIC APPLICATION” (FOVEA PHARMACEUTICALS, priority 2010, published 2013)
Values after ≈ are worked out from the molar mass of the structure shown.

Experiments:
h Src = h Src (Homo sapiens, UniProt P12931); test: LC3000 Src assay (off-chip incubation mobility-shift kinase assay, Caliper LabChip); assay type: biochemical; details: ATP at KM apparent
Method: The screening and profiling experiments described here were performed using Caliper Life Sciences' proprietary LabChip™ technology. Caliper LC3000 and EZ Reader II instruments are widely used throughout the drug discovery process for assay development, primary screening, selectivity screening, generation of Structure-Activity Relationships (SARs) and Mechanism of Action (MOA) studies. The LabChip™ technology is particularly well suited for enzymatic ‘targets’ such as kinases, proteases, phosphatases, histone deacetylases (HDAC), phosphodiesterases (PDE), and acyl-transferases. The key benefit of the technology is the separation and direct measurement of substrates and products, which allows for higher signal-to-noise ratios and fewer false positive/negative results. This direct measurement also allows for the identification and elimination of enzymatic activities that are not associated with the kinase reaction of interest.
The off-chip incubation mobility-shift kinase assay uses a microfluidic chip to measure the conversion of a fluorescent peptide substrate to a phosphorylated product. The reaction mixture, from a microtiter plate well, is introduced through a capillary sipper onto the chip, where the nonphosphorylated substrate and phosphorylated product are separated by electrophoresis and detected via laser-induced fluorescence. […] The phosphorylated product migrates through the chip faster than the non-phosphorylated substrate, and signals from the two forms of the peptide appear as distinct peaks. Caliper's data analysis software (HTSWA) determines peak heights, from which the ratio of product to the peak sum P/(P+S) and percent (%) conversion is calculated. This value is used to compare compound wells to control wells present on the plate, and thereby determine the % inhibition values for the compound. The formula used to calculate % inhibition is as follows, where C100% is the average % conversion of the 100% activity wells and C0% is the average % conversion of the 0% activity wells:
(1-(%conversionofsample—C0%)/(C100%−C0%))*100
Compounds were dissolved in 100% DMSO and diluted to 25× the final desired screening concentration. Serial dilutions were performed to obtain the concentrations specified for particular studies. One μl of each concentration was transferred, in duplicate, to a 384-well Greiner microtiter plate. Generally, 12 μL of enzyme buffer containing purified kinase (various suppliers), 100 mM HEPES, pH 7.5, 1 mM DTT (Calbiochem, 2333153), 10 mM MgCl2 (Sigma, M-1028) or 10 mM MnCl2 (Sigma, M-1787) (assay specific), and 0.002% Brij-35 (Sigma, B4184) was added to each well. Compound and enzyme were allowed to pre-incubate for 15 minutes. 12 μL of peptide/ATP buffer containing 100 mM HEPES, pH 7.5, 1.5 μM fluorescein-labeled peptide (specific to kinase of interest), ATP (at KM apparent, Sigma, A9187), and 0.002% Brij-35 was then added to each well to initiate the reaction. Generally, reactions were incubated for 1-1.5 hours at room temperature to obtain adequate (15-40%) conversion of peptide to phosphorylated product in the linear range of the reaction. Reactions were terminated with the addition of 45 μL of Stop Buffer (containing 20 mM EDTA). Plates were then read on the LabChip 3000 using a 12-sipper LabChip. % conversion values and % inhibition values were obtained as described and IC50 curves of compounds were generated using Graphpad Prism Version 4 or 5.01. A nonlinear curve fit using the sigmoidal dose response—variable slope fit was used to graph IC50 curves and determine IC50 values and hillslopes.

Src/Lyn (h) = Src/Lyn (h) (Homo sapiens, UniProt P12931); test: In vitro potency Src/Lyn (h), Table 2; assay type: biochemical
Src/Lyn (h), sequence (P12931 whole entry): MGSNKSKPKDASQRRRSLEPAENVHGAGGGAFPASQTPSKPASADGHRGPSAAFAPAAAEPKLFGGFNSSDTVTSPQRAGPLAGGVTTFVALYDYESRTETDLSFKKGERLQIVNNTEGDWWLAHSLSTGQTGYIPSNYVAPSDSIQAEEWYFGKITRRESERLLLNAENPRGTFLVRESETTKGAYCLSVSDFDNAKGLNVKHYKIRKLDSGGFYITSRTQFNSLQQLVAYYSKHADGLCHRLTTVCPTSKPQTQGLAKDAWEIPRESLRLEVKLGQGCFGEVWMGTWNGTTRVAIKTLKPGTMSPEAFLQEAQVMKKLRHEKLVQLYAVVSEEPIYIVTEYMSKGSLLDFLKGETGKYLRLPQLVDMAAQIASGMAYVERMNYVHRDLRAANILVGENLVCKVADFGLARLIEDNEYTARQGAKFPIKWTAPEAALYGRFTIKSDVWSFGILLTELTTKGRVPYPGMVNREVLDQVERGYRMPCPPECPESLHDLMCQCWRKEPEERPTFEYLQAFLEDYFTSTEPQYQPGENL

[1] = Solubility in HPbCD 7% pH 5; assay type: physicochemical; details: HPbCD 7% solution, aqueous with cosolvent or surfactant or cyclodextrin, read-out: Solubility HPbCD 7% pH 5 (mg/ml) measured
[2] = Ussing chamber permeation study through rabbit cornea; assay type: in vitro ADME; details: 37° C., 0.5 cm2 rabbit cornea
Method: Ussing chambers were used for the permeation study each day of experiment.
3 mL of solution were placed in donor side of Ussing chambers and 3 mL of Ringer solution were in receiver side. Freshly removed rabbit corneal tissue were placed between the two half chambers.
Temperature was maintained at 37° C. during all the flux study and oxygenation was provided by a continuous perfusion of carbogen (oxygen/carbonic acid) (95/5),
Rabbits were euthanized and the 6 corneas were removed and used immediately. 500 μL of receptor side liquid were removed from Ussing chambers and replaced by fresh buffer. The samples were analyzed immediately (less than 10 hours after collection).
100 μL of donor side liquid were removed from Ussing chambers and not replaced. The samples were diluted immediately (less than 1 hour) after collection and analyzed less than 10 hours after dilution. Analysis was performed on HPLC (Stationary phase: C18 (Particle size: 3 μm Length: 5 cm, using a gradient from 5 to 95% ACN/water (0.1% formic acid)).
At the end of the sampling period, all corneas were discarded.

Colour of the compound = assay type: physicochemical; details: powder
[3] = tested on: choroidal neovascularisation; test: Rat model of laser-induced choroidal neovascularization (CNV); assay type: in vivo, rat (Brown Norway); details: topical solution 6 mg/mL (10 μL) two times daily, 14 days after laser induction
Method: We investigated the efficacy of topical administration of compound 25 of the invention in reducing choroidal neovascularisation in the rat (Brown Norway, 8 weeks of age).
On day 1, CNV was performed by laser photocoagulation-induced rupture of Bruch's membrane as previously described (Edelman and Casto 2000). An Argon green laser irradiation was delivered through the slit lamp for induce photocoagulation. In each eye, 6-7 focal laser spots were applied concentrically approximately two optic discs from the center. Immediately afterwards, rats were treated with topical solution 6 mg/mL (10 μL) two times daily until sacrifice. 14 days after laser induction of CNV blood vessels were visualized on retinal pigment epithelium-choroid-sclera flat-mount by immunostaining with isolectin B4.
Assessment of CNV response to treatment was performed after capture and area measurement of immunostained vessels representing CNV at the site of laser burn.
Pixel area of vascular budding was traced by 2 trained masked investigators and converted to μm^2.

h Src, sequence (P12931 whole entry): as above

SMILES	IC50 (h Src) [nM]	IC50 (Src/Lyn (h)) [nM]	solubility [1] [mg/mL]	Flux between 2 and 4 hours through 0.5 cm2 of rabbit cornea (μg/h/cm2) [2] [μg/h/cm2]	Colour (Colour of the compound)	reduction of CNV compared to control [3] [%]
Cc1cc(Nc2ncc3cc(-c4cc(O)ccc4Cl)ccc3n2)cc(N2CCN(CCO)CC2)c1 [Compound 46, 4-Chloro-3-(2-{3-[4-(2-hydroxy-ethyl)-piperazin-1-yl]-5-methyl-phenylamino}-quinazolin-6-yl)-phenol]	0.8	0.8	> 10	13	Pale	–
OCc1cc(Nc2nc3ccc(-c4cc(O)ccc4Cl)cn3n2)ccn1 [compound 13, 4-Chloro-3-[2-(2-hydroxymethyl-pyridin-4-ylamino)-[1,2,4]triazolo[1,5-a]pyridin-6-yl]-phenol]	27	27	2.38 (≈ 6.47 mM)	13	White	–
Cc1cc(Nc2nc3ccc(-c4cc(O)ccc4Cl)cn3n2)cc(N2CCN(CCO)CC2)c1 [Compound 28, 4-Chloro-3-(2-{3-[4-(2-hydroxy-ethyl)-piperazin-1-yl]-5-methyl-phenylamino}-[1,2,4]triazolo[1,5-a]pyridin-6-yl)-phenol]	3	3	7.5 (≈ 15.7 mM)	8	White	–
OCc1cc(CO)cc(Nc2nc3ccc(-c4cc(O)ccc4Cl)cn3n2)c1 [compound 5, 3-[2-(3,5-Bis-hydroxymethyl-phenylamino)-[1,2,4]triazolo[1,5-a]pyridin-6-yl]-4-chloro-phenol]	5	5	1.3 (≈ 3.28 mM)	13	White	–
OCCN1CCN(c2ccc(Nc3nc4ccc(-c5cc(O)ccc5Cl)cn4n3)cn2)CC1 [compound 10, 4-Chloro-3-(2-{6-[4-(2-hydroxy-ethyl)-piperazin-1-yl]-pyridin-3-ylamino}-[1,2,4]triazolo[1,5-a]pyridin-6-yl)-phenol]	14	14	5.69 (≈ 12.2 mM)	30	White	–
OCCn1cnc2cc(Nc3ncc4cc(-c5cc(O)ccc5Cl)ccc4n3)ccc21 [Compound 45, 4-Chloro-3-{2-[1-(2-hydroxy-ethyl)-1H-benzoimidazol-5-ylamino]-quinazolin-6-yl}-phenol]	0.5	1	2.3 (≈ 5.33 mM)	8	Pale	–
Oc1ccc(Cl)c(-c2ccc3nc(Nc4ccc(OCCN5CCCC5)nc4)nn3c2)c1 [Compound 25, 4-Chloro-3-{2-[6-(2-pyrrolidin-1-yl-ethoxy)-pyridin-3-ylamino]-[1,2,4]triazolo[1,5-a]pyridin-6-yl}-phenol]	23	23	6.5 (≈ 14.4 mM)	14	White	15
Cc1nc(Nc2nc3ccc(-c4cc(O)ccc4Cl)cn3n2)cc(N2CCN(CCO)CC2)n1 [Compound 27, 4-Chloro-3-(2-{6-[4-(2-hydroxy-ethyl)-piperazin-1-yl]-2-methyl-pyrimidin-4-ylamino}-[1,2,4]triazolo[1,5-a]pyridin-6-yl)-phenol]	83	83	> 10	19	White	–
OCc1cc(CO)cc(Nc2ncc3cc(-c4cc(O)ccc4Cl)ccc3n2)c1 [compound 16, 3-[2-(3,5-Bis-hydroxymethyl-phenylamino)-quinazolin-6-yl]-4-chloro-phenol]	0.1	< 1	1.2 (≈ 2.94 mM)	17	Pale	–
OCc1cc(Nc2ncc3cc(-c4cc(O)ccc4Cl)ccc3n2)ccn1 [Compound 43, 4-Chloro-3-[2-(2-hydroxymethyl-pyridin-4-ylamino)-quinazolin-6-yl]-phenol]	0.7	0.7	1.5 (≈ 3.96 mM)	6	Pale	–
COc1cc2nc(Nc3ccc(OCCN4CCCC4)cc3)nn2cc1-c1cc(O)ccc1Cl [Compound 39, 4-Chloro-3-{7-methoxy-2-[4-(2-pyrrolidin-1-yl-ethoxy)-phenylamino]-[1,2,4]triazolo[1,5-a]pyridin-6-yl}-phenol]	69	–	–	–	–	–
